The test system of test [1] is UV inactivated Influenza A PR/8/1934 H1N1. The test is classed as binding.
The test system of test [2] is A/PR/8/34 H1N1 infected Madin-Darby Canine Kidney (MDCK) cells. Briefly: Cytopathic effect assay (XTT), virus induced cell death. To be noted: read-out: IC50, inhibition of virus induced cell death. Format: cell-based. The text has this: The illustrated examples support the finding that synbodies inhibit the cytopathic effect of influenza on MDCK cells. Influenza binding peptides were conjugated to a bivalent scaffold (Sc1, as best shown in FIG. 2A) and screened for viral inhibition in an in vitro inhibition assay with A/PR/8/34 H1N1 infected Madin-Darby Canine Kidney (MDCK) cells.
(Cytopathic effects are the visible damage that an infection or toxin causes in cultured cells.)

Test [3] relates to UV inactivated Influenza A PR8/1934. The test is classed as binding.
Test [4] has as its system hemagglutination of A/PR/8/34.
For test [5], the system named is NP in A/Sydney/5/1997 H3N2 viral lysate. Format: binding.
The target in test [6] is T1, NP in A/PR/8/34 H1N1 viral lysate (Influenza A virus, UniProt P03466).
T1 construct: from tissue; host or cells: A/PR/8/34 H1N1 viral lysate
T1 sequence (P03466 whole entry): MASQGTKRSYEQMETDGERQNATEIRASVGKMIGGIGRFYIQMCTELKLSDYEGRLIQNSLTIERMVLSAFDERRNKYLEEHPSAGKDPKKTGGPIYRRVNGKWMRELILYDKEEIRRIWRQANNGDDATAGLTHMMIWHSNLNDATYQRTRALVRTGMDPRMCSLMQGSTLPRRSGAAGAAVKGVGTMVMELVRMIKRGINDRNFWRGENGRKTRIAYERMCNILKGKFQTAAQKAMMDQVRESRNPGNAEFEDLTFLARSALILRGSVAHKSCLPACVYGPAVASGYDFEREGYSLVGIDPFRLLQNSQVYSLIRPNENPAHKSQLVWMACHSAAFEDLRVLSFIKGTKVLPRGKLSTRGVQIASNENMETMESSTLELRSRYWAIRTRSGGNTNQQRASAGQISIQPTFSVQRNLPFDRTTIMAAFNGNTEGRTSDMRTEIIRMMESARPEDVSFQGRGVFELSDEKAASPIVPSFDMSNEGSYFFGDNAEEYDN
Format: binding.

Numbered stars: 1 amine (or outer) side, 2 acyl side, 3 side chain; on linkers, the order of the positions; unused ones are H or OH. Bridge positions count the residues as written; N and C are the ends. Square brackets hold non-standard residues; d marks the D form. Ends that are not written are not given here. I, II: the chains in the order shown. * marks the point of attachment. ξ: configuration not given here. Succinimide(1-C2H4CO,3-yl) = O=C1CC([*:1])C(=O)N1CCC(=O)[*:2]; X4 = O=C(O)CC[C@H](NC(=O)CCN1C(=O)CC([*:1])C1=O)C(=O)[*:2]; X2 = O=C(O)CCC(NC(=O)CCN1C(=O)CC([*:2])C1=O)C(=O)[*:1]; Biotin = O=C1N[C@H]2[C@H](CS[C@H]2CCCCC(=O)*)N1; X3 = O=C1CC([*:2])C(=O)N1CCC(=O)[*:1]; X1 = O=C1NC2CSC(CCCCC(=O)*)C2N1; scaffold‑1 = not defined here; Pra = C#CC[C@H](N)C(=O)O; ξE = NC(CCC(=O)O)C(=O)O; AEEA = NCCOCCOCC(=O)O; ξK = NCCCCC(N)C(=O)O; ξS = NC(CO)C(=O)O

In the case of “CSGrMYpYrPFQGNHIYrKK (CSG[dR]MYPY[dR]PFQGNHIY[dR]KK; not fully specified (residue 7); printed as CSGrMYpYrPFQGNHIYrKK) [opt10]”, the “fold improvement of optimized peptide over identified lead peptide” value in test [1] is “approximately 1000 fold”.

Consider “I: CSGDMYEYNPFQGNHIYNKK-NH2 / II: CSGDMYEYNPFQGNHIYNKK-NH2 / III: EKGSKSGK(Biotin)[Pra]-NH2 (linker I:1-III:2 via X4; linker II:1-III:N via Succinimide(1-C2H4CO,3-yl); C-terminus assumed) [P5-P5-Sc1]”, for which the IC50 (as a rule, the point on the concentration scale where inhibition reaches its midpoint) in test [2] was about 2500 nM. Also, the “Fold Change versus WT Synbody” value in test [3] came out at 1 fold.

As for “I: [ξE][ξK]G[ξS]G[ξS]G[AEEA][ξK](X1)IDKMPFETHRLGPGRFDGSG-NH2 / II: CSGDMYEYNPFQGNHIYNKK-NH2 / III: CSGDMYEYNPFQGNHIYNKK-NH2 (linker I:2-II:1 via X2; linker I:N-III:1 via X3) [P5-P5-Sc2]”, in test [4], the inhibition of hemagglutination entry is reported as “did not inhibit hemagglutination”. Also, the IC50 with A/Sydney/5/1997 H3N2 and with A/CA/7/2009 H1N1 was 2500 nM each time. Besides, the “pull-down of NP from lysate” value in test [5] and in test [6] was “pulled-down NP from both lysates” throughout.

Regarding “opt1-opt1: homo-bivalent synbody SEQ ID NO: 2-2 on scaffold-1 (chain 1 CSGDMYRYNPFQGNHIYNKK; chain 2 CSGDMYRYNPFQGNHIYNKK; linker (positions not given here) via scaffold‑1; reading uncertain; also: homo-bivalent on scaffold-1, attachment not given here)”, in test [3], the “Fold Change versus WT Synbody” value stood at 6 fold.

As for “opt2-opt2: homo-bivalent synbody SEQ ID NO: 3-3 on scaffold-1 (chain 1 CSGRMYEYNPFQGNHIYNKK; chain 2 CSGRMYEYNPFQGNHIYNKK; linker (positions not given here) via scaffold‑1; reading uncertain; also: homo-bivalent on scaffold-1, attachment not given here)”, in test [3], the “Fold Change versus WT Synbody” value is recorded as 3 fold.

“opt3-opt3: homo-bivalent synbody SEQ ID NO: 4-4 on scaffold-1 (chain 1 CSGDMYPYNPFQGNHIYNKK; chain 2 CSGDMYPYNPFQGNHIYNKK; linker (positions not given here) via scaffold‑1; reading uncertain; also: homo-bivalent on scaffold-1, attachment not given here)”: the “Fold Change versus WT Synbody” value in test [3] is recorded as “n.b”.

As to “opt4-opt4: homo-bivalent synbody SEQ ID NO: 5-5 on scaffold-1 (chain 1 CSGRMYPYNPFQGNHIYNKK; chain 2 CSGRMYPYNPFQGNHIYNKK; linker (positions not given here) via scaffold‑1; reading uncertain; also: homo-bivalent on scaffold-1, attachment not given here)”, the “Fold Change versus WT Synbody” value in test [3] is listed as 10 fold.

For the substance “opt5-opt5: homo-bivalent synbody SEQ ID NO: 6-6 on scaffold-1 (chain 1 CSGRMYRYNPFQGNHIYNKK; chain 2 CSGRMYRYNPFQGNHIYNKK; linker (positions not given here) via scaffold‑1; reading uncertain; also: homo-bivalent on scaffold-1, attachment not given here)”, the “Fold Change versus WT Synbody” value in test [3] is reported as “n.b”.

On to “opt6-opt6: homo-bivalent synbody SEQ ID NO: 7-7 on scaffold-1 (chain 1 CSGDMYEYNPFQGNHIYRKK; chain 2 CSGDMYEYNPFQGNHIYRKK; linker (positions not given here) via scaffold‑1; reading uncertain; also: homo-bivalent on scaffold-1, attachment not given here)”, for which the “Fold Change versus WT Synbody” value in test [3] is given as 4 fold.

Take “opt7-opt7: homo-bivalent synbody SEQ ID NO: 8-8 on scaffold-1 (chain 1 CSGRMYPYNPFQGNHIYRKK; chain 2 CSGRMYPYNPFQGNHIYRKK; linker (positions not given here) via scaffold‑1; reading uncertain; also: homo-bivalent on scaffold-1, attachment not given here)”: the “Fold Change versus WT Synbody” value in test [3] worked out at 45 fold.

Consider “opt8-opt8: homo-bivalent synbody SEQ ID NO: 9-9 on scaffold-1 (chain 1 CSGTMYEYNPFQGNHIYNKK; chain 2 CSGTMYEYNPFQGNHIYNKK; linker (positions not given here) via scaffold‑1; reading uncertain; also: homo-bivalent on scaffold-1, attachment not given here)”, for which, in test [3], the “Fold Change versus WT Synbody” value is listed as 1 fold.

With “opt9-opt9: homo-bivalent synbody SEQ ID NO: 10-10 on scaffold-1 (chain 1 CSGRMYPYRPFQGNHIYRKK; chain 2 CSGRMYPYRPFQGNHIYRKK; linker (positions not given here) via scaffold‑1; reading uncertain; also: homo-bivalent on scaffold-1, attachment not given here)”, in test [3], the “Fold Change versus WT Synbody” value is listed as 1 fold.

Take “opt11-opt11: homo-bivalent synbody SEQ ID NO: 12-12 on scaffold-1 (chain 1 CSGTMYPYRPFQGNHIYRKK; chain 2 CSGTMYPYRPFQGNHIYRKK; linker (positions not given here) via scaffold‑1; reading uncertain; also: homo-bivalent on scaffold-1, attachment not given here)”: in test [3], the “Fold Change versus WT Synbody” value was determined as 47 fold.

Consider “opt12-opt12: homo-bivalent synbody SEQ ID NO: 13-13 on scaffold-1 (chain 1 CSGRMYPYRPFQRKHIYRKK; chain 2 CSGRMYPYRPFQRKHIYRKK; linker (positions not given here) via scaffold‑1; reading uncertain; also: homo-bivalent on scaffold-1, attachment not given here)”, for which the “Fold Change versus WT Synbody” value in test [3] was “n.b”.

Take “opt13-opt13: homo-bivalent synbody SEQ ID NO: 14-14 on scaffold-1 (chain 1 CCSGDRYEYNPFQGKHIYNK; chain 2 CCSGDRYEYNPFQGKHIYNK; linker (positions not given here) via scaffold‑1; reading uncertain; also: homo-bivalent on scaffold-1, attachment not given here)”: the “Fold Change versus WT Synbody” value in test [3] is listed as “n.b”.

For “opt14-opt14: homo-bivalent synbody SEQ ID NO: 15-15 on scaffold-1 (chain 1 CSGRMYEYNPFQGKHIYRKK; chain 2 CSGRMYEYNPFQGKHIYRKK; linker (positions not given here) via scaffold‑1; reading uncertain; also: homo-bivalent on scaffold-1, attachment not given here)”, in test [3], the “Fold Change versus WT Synbody” value was determined as 107 fold.

The values are drawn from patent publication US10011649B2 (priority 2013, dated 2018).
